Reference: ChEMBL document CHEMBL5465560, “Selectivity Literature for EUbOPEN Chemogenomic Library” (2024)
Blank lines part the entries; values can stand above or below the compound they belong to.

Tests used:
[1] = target: MAP/microtubule affinity-regulating kinase 3 (Homo sapiens) (UniProt P27448); test: Selectivity interaction (KinomeScan (DiscoverX)) EUB0001049a MARK3; conditions: at 1 µM
[2] = target: Interleukin-1 receptor-associated kinase 1 (Homo sapiens) (UniProt P51617); test: Selectivity interaction (Ambit KINOMEscan and KiNATiv profiling in Jurkat cells) EUB0000090b IRAK1; type: cell-based; conditions: at 1 µM
[3] = target: Protein kinase C theta type (Homo sapiens, UniProt Q04759); test: Selectivity interaction (Kinase panel (Invitrogen)) EUB0000639a PRKCQ; conditions: at 200 nM
[4] = target: Leukocyte tyrosine kinase receptor (Homo sapiens, UniProt P29376); test: Selectivity interaction (Kinase panel (Invitrogen)) EUB0000639a LTK; conditions: at 200 nM
[5] = target: T1, Serine/threonine-protein kinase Sgk3 (Homo sapiens) (UniProt Q96BR1); test: Selectivity interaction (ActivX KiNativ screen (kinase selectivity in THP-1 cell lysates)) EUB0000639a SGK3; type: subcellular; conditions: lysate
T1 sequence (whole entry): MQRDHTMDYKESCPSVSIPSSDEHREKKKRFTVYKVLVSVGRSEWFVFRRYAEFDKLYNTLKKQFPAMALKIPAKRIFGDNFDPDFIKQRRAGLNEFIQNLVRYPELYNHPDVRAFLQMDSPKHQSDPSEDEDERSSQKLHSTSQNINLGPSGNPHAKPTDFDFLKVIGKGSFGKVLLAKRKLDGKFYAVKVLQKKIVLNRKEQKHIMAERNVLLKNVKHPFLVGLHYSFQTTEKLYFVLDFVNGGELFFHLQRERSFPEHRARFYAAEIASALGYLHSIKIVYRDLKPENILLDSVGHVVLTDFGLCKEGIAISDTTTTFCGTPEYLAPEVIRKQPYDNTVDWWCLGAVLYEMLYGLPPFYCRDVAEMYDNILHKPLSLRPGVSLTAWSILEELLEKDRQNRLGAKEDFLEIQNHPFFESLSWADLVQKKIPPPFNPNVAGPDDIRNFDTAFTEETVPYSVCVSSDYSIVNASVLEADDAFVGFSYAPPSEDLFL

[6] = target: cAMP-dependent protein kinase catalytic subunit alpha (Homo sapiens, UniProt P17612); test: Selectivity interaction (KinomeScan (DiscoverX)) EUB0000595a PRKACA; conditions: at 10 µM
[7] = target: Calcium/calmodulin-dependent protein kinase kinase 1 (Homo sapiens) (UniProt Q8N5S9); test: Selectivity interaction (KinomeScan (DiscoverX)) EUB0000229b CAMKK1; conditions: at 10 µM
[8] = target: T2, Rhodopsin kinase GRK7 (Homo sapiens) (UniProt Q8WTQ7); test: Selectivity interaction (KinomeScan (DiscoverX)) EUB0000092b GRK7; conditions: at 10 µM
T2 sequence (whole entry): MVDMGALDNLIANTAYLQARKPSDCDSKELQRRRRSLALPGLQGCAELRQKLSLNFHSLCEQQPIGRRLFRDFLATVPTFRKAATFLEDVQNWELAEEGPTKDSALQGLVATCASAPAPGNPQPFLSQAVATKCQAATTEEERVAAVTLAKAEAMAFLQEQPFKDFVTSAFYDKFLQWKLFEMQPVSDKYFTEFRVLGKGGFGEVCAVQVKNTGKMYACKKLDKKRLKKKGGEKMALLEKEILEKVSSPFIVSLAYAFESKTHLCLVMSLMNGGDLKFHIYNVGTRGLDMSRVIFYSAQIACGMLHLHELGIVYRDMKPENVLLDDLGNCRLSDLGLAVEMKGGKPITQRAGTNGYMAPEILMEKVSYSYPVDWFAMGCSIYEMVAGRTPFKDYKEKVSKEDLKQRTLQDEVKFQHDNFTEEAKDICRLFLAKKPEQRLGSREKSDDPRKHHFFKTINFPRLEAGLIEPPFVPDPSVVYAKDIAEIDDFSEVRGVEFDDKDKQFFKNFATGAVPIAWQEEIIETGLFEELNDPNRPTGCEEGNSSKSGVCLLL

[9] = target: Protein kinase C delta type (Homo sapiens) (UniProt Q05655); test: Selectivity interaction (KinomeScan (DiscoverX)) EUB0000655a PRKCD; conditions: at 10 µM
[10] = target: Mitogen-activated protein kinase 3 (Homo sapiens, UniProt P27361); test: Selectivity interaction (KinomeScan (DiscoverX)) EUB0000618a MAPK3; conditions: at 10 µM
[11] = target: Ephrin type-A receptor 4 (Homo sapiens, UniProt P54764); test: Selectivity interaction (KinomeScan (DiscoverX)) EUB0000618a EPHA4; conditions: at 10 µM
Sequence of Ephrin type-A receptor 4 (P54764 whole entry): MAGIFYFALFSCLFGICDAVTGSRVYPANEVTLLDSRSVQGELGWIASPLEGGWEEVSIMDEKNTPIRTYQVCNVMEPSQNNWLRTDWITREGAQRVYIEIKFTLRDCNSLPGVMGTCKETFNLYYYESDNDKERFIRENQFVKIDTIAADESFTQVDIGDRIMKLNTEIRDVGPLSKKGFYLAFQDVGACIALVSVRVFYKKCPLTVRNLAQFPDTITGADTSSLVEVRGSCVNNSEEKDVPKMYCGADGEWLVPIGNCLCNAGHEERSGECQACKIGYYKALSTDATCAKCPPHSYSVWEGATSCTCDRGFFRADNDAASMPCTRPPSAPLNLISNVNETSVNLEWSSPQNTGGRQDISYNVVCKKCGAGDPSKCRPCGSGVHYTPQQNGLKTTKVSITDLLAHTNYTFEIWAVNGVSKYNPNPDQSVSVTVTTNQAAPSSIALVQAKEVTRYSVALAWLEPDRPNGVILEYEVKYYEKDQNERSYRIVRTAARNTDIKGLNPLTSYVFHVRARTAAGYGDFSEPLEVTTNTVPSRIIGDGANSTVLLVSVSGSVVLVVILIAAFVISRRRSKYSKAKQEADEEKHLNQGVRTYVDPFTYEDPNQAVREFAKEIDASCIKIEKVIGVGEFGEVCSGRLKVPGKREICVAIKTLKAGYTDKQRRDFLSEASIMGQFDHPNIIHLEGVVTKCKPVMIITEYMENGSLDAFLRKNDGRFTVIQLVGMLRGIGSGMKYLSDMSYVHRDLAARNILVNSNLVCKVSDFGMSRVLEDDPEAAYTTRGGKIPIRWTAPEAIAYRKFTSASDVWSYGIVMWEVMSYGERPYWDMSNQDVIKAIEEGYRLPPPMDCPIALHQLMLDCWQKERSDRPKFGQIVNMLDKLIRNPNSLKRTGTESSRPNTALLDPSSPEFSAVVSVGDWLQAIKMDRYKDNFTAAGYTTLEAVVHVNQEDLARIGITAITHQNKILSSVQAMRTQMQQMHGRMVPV

Sequence of Protein kinase C theta type (Q04759 whole entry, looked up): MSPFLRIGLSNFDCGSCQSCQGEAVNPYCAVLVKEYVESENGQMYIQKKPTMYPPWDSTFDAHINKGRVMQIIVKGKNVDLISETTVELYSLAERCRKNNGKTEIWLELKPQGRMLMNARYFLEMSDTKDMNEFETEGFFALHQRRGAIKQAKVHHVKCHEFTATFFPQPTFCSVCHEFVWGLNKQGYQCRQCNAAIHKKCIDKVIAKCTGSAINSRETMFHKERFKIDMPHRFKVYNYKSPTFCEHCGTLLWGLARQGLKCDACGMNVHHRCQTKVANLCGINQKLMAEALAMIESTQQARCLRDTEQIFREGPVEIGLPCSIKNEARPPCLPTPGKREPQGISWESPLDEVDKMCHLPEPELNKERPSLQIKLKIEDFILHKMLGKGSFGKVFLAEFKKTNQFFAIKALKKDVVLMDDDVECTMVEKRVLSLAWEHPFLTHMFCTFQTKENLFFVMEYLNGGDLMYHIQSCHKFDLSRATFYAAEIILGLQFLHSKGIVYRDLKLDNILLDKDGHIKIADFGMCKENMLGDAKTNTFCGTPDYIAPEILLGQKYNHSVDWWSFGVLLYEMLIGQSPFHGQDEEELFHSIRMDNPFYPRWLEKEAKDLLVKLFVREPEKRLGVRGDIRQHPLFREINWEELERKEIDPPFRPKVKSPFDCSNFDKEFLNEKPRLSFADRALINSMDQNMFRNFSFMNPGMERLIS
Sequence of Mitogen-activated protein kinase 3 (P27361 whole entry): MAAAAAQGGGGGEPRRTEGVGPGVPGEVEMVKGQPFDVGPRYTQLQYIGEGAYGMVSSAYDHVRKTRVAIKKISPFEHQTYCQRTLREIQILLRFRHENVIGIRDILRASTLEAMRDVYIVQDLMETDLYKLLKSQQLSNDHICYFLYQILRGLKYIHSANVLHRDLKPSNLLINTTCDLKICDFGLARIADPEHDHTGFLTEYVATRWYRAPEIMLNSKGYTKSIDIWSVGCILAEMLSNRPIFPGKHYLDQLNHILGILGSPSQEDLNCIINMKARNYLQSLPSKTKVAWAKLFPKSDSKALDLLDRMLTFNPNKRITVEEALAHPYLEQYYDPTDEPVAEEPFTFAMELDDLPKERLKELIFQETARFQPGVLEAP
Sequence of Calcium/calmodulin-dependent protein kinase kinase 1 (Homo sapiens) (Q8N5S9 whole entry, looked up): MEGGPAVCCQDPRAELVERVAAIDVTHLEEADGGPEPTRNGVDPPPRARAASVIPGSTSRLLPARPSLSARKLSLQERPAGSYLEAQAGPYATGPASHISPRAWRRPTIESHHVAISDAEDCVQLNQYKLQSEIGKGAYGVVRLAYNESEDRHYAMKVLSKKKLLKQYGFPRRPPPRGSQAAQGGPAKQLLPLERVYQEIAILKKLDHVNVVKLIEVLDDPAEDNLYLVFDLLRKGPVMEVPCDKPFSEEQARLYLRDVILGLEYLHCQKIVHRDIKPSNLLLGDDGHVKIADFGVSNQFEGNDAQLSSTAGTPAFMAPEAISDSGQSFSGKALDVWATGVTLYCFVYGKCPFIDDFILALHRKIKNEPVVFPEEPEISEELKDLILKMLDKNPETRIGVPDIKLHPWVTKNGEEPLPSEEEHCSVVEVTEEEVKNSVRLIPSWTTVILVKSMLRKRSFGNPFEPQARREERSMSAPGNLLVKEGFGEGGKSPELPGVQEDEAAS
Sequence of Leukocyte tyrosine kinase receptor (P29376 whole entry): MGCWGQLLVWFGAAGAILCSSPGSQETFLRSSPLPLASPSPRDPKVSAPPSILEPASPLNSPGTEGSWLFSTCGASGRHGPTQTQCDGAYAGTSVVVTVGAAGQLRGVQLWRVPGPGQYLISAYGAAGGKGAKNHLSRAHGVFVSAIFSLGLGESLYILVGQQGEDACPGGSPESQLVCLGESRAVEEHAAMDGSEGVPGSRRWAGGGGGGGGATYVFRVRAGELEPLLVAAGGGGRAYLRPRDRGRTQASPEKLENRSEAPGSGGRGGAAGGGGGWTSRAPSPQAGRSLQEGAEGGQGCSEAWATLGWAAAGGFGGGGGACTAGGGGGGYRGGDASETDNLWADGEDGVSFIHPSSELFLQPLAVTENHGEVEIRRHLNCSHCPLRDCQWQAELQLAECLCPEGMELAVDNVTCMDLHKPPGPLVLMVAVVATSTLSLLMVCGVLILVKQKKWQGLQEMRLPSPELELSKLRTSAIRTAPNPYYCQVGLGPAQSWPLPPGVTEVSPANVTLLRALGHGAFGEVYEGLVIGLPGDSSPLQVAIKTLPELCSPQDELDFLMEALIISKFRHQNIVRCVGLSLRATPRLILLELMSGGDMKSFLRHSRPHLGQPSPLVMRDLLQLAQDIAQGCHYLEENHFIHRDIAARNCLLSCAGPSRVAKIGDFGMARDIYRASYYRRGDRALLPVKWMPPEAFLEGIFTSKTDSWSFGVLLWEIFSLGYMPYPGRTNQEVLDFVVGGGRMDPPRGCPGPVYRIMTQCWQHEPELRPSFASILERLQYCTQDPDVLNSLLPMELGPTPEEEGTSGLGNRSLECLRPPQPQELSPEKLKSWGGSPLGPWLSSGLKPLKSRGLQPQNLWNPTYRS
Sequence of MAP/microtubule affinity-regulating kinase 3 (Homo sapiens) (P27448 whole entry, looked up): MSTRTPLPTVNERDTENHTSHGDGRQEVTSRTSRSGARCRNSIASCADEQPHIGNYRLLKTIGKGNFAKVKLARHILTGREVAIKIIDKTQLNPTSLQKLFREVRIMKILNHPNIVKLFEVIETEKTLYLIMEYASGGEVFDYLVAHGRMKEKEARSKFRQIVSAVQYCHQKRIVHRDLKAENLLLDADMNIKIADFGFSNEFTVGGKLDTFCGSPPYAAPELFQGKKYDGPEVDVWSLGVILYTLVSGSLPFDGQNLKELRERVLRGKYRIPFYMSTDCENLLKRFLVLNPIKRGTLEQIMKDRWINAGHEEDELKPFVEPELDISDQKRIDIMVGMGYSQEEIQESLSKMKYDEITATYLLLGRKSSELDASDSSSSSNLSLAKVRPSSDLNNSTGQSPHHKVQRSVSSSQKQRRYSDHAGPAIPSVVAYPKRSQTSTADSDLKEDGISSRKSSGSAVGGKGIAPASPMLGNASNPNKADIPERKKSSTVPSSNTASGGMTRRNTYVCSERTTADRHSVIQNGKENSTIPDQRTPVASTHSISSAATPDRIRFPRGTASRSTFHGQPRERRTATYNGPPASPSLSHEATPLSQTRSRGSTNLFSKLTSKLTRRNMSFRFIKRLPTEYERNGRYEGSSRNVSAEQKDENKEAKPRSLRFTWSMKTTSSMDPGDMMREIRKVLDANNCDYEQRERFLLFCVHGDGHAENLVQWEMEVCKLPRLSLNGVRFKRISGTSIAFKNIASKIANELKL
Sequence of Interleukin-1 receptor-associated kinase 1 (Homo sapiens) (P51617 whole entry, looked up): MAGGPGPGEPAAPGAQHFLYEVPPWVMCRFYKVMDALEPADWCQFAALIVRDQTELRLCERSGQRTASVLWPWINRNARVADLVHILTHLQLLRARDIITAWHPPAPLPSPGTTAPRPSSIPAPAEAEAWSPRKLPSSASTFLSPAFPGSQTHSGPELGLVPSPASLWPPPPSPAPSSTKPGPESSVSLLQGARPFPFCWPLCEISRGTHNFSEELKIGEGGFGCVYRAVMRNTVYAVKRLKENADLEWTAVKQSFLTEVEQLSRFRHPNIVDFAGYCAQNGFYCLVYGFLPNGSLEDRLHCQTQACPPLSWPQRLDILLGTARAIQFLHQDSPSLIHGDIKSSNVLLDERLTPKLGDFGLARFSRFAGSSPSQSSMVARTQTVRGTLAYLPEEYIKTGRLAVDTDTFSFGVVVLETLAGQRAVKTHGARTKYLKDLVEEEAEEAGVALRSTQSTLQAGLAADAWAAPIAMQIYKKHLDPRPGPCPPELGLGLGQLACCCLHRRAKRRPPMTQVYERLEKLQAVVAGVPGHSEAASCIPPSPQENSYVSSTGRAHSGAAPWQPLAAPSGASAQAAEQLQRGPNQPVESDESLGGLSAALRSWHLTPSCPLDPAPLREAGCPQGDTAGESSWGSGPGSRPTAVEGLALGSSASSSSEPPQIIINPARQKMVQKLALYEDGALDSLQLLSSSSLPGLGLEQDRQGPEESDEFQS

Compound: COc1cc(Nc2nc(C)cc(-c3cnn4nc(OC)ccc34)n2)cc(C(F)(F)F)c1
% of control [1]: 77%

Compound: CN(C)C/C=C/C(=O)Nc1ccc(C(=O)N2CCCC(Nc3ncc(Cl)c(-c4c[nH]c5ccccc45)n3)C2)cc1 (stereo not given)
% of control [2]: 97%

% of inhibition [3]: 3.66%
% of inhibition [4]: 5.58%
% of inhibition ([5]; at 0.01 µM): 51.3%
% of inhibition ([5]; at 0.04 µM): 6.7%
% of inhibition ([5]; at 0.2 µM): 7.4%
% of inhibition ([5]; at 1 µM): 18.9%
% of inhibition ([5]; at 5 µM): 25.3%
Compound: CC[C@@H]1[C@H](F)C(=O)N[C@@H]1COc1nccc2cc(C(N)=O)c(OC)cc12 [ZIMLOVISERTIB]

Compound: COCC(=O)NC/C=C/c1ccc2ncnc(Nc3ccc(Oc4ccc(C)nc4)c(C)c3)c2c1 [CP-724714]
% of control [6]: 100%

Compound: COc1cc(N(C)c2ccnc3ccc(C(F)(F)F)cc23)cc(OC)c1OC
% binding [7]: 97%

Compound: CCC(=O)N1CCN(c2ccc(-n3c(=O)ccc4cnc5ccc(-c6cnc7ccccc7c6)cc5c43)cc2C(F)(F)F)CC1
% of control [8]: 100%

Compound: CN(C)CCOc1ccc(-c2nc(-c3ccncc3)c(-c3ccc4c(c3)CC/C4=N\O)[nH]2)cc1
% of control [9]: 89%

Compound: O[C@H]1CC[C@H](Nc2ncc3nc(Nc4c(F)cc(F)cc4F)n([C@H]4CCOC4)c3n2)CC1
% of control [10]: 32%
% of control [11]: 93%
